Measurements reported in the supplement of paper PMC10307832.

Legend:
Experiment in all cases: relative viability (nuclei count vs DMSO), 5 days (fraction); higher = more cells survive
[1] = compound: CN(c1ncccc1CNc1nc(Nc2ccc3c(c2)CC(=O)N3)ncc1C(F)(F)F)S(C)(=O)=O + CCNC(=O)c1noc(-c2cc(C(C)C)c(O)cc2O)c1-c1ccc(CN2CCOCC2)cc1 [Luminespib] (partner 0.01 µM)
Summary of the method: (§1)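 Lung cancer cell lines in 1536-well plates got either a single drug or a fixed anchor-drug dose together with five library-drug doses (not always all listed) in √10 steps, by pin tool, on the day after seeding. Nuclei were counted after 5 days, and relative viability is the treated-to-vehicle ratio of nuclei counts. Values are medians of duplicate plates.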

[2] = compound: CN(c1ncccc1CNc1nc(Nc2ccc3c(c2)CC(=O)N3)ncc1C(F)(F)F)S(C)(=O)=O + CS(=O)(=O)N1CCN(Cc2cc3nc(-c4cccc5[nH]ncc45)nc(N4CCOCC4)c3s2)CC1 [Pictilisib] (partner 1 µM)
Summary of the method: as §1

[3] = compound: CN(c1ncccc1CNc1nc(Nc2ccc3c(c2)CC(=O)N3)ncc1C(F)(F)F)S(C)(=O)=O + CC(=O)c1c(C)c2cnc(Nc3ccc(N4CCNCC4)cn3)nc2n(C2CCCC2)c1=O [Palbociclib] (partner 0.5 µM)
Summary of the method: as §1

[4] = compound: CN(c1ncccc1CNc1nc(Nc2ccc3c(c2)CC(=O)N3)ncc1C(F)(F)F)S(C)(=O)=O + COc1cccc2cc(-c3nc([C@H]4CC[C@H](C(=O)O)CC4)n4ncnc(N)c34)[nH]c12 [OSI-027] (partner 0.5 µM)
Summary of the method: as §1

| Cell Line | relative viability ([1]; first compound 0.01 µM) | relative viability ([1]; first compound 0.03162 µM) | relative viability ([1]; first compound 0.1 µM) | relative viability ([1]; first compound 0.3162 µM) | relative viability ([1]; first compound 1 µM) | relative viability ([2]; first compound 0.03162 µM) | relative viability ([2]; first compound 0.1 µM) | relative viability ([2]; first compound 0.3162 µM) | relative viability ([2]; first compound 1 µM) | relative viability ([3]; first compound 0.01 µM) | relative viability ([3]; first compound 0.03162 µM) | relative viability ([3]; first compound 0.1 µM) | relative viability ([3]; first compound 0.3162 µM) | relative viability ([3]; first compound 1 µM) | relative viability ([4]; first compound 0.01 µM) | relative viability ([4]; first compound 0.03162 µM) | relative viability ([4]; first compound 0.1 µM) | relative viability ([4]; first compound 0.3162 µM) | relative viability ([4]; first compound 1 µM) | relative viability ([2]; first compound 0.01 µM) |
| --- | --- | --- | --- | --- | --- | --- | --- | --- | --- | --- | --- | --- | --- | --- | --- | --- | --- | --- | --- | --- |
| LCLC-97TM1 | 0.779 | 0.854 | 0.788 | 0.81 | 0.632 | 0.23 | 0.196 | 0.159 | 0.148 | 0.217 | 0.176 | 0.171 | 0.18 | 0.158 | 0.512 | 0.524 | 0.42 | 0.458 | 0.576 |  |
| HARA | 0.589 | 0.887 | 0.602 | 0.606 | 0.549 | 0.556 | 0.365 | 0.544 | 0.377 | 0.211 | 0.276 | 0.231 | 0.203 | 0.247 | 0.54 | 0.481 | 0.524 | 0.612 | 0.55 | 0.305 |
| HCC-78 |  |  |  |  |  | 0.167 | 0.216 | 0.188 | 0.165 | 0.419 | 0.46 | 0.462 | 0.487 | 0.408 | 0.378 | 0.399 | 0.36 | 0.421 | 0.353 | 0.228 |
| NCI-H1666 | 0.936 | 0.939 | 0.923 | 0.786 | 0.612 | 0.373 | 0.404 | 0.532 | 0.404 | 0.696 | 0.614 | 0.627 | 0.639 | 0.543 | 0.779 | 0.841 | 0.792 | 0.695 | 0.556 | 0.549 |
| NCI-H2347 | 0.643 | 0.557 | 0.243 | 0.592 | 0.389 | 0.614 | 0.74 | 0.919 | 0.362 | 0.434 | 0.389 | 0.426 | 0.354 | 0.377 | 0.339 | 0.416 | 0.326 | 0.449 | 0.314 | 0.609 |
| NCI-H838 | 0.409 | 0.255 | 0.242 | 0.31 | 0.263 | 0.482 | 0.471 | 0.448 | 0.395 | 0.243 | 0.237 | 0.211 | 0.204 | 0.204 | 0.492 | 0.413 | 0.396 | 0.394 | 0.413 | 0.431 |
| NCI-H2023 | 0.696 | 0.79 | 0.597 | 0.643 | 0.611 | 0.329 | 0.199 | 0.225 | 0.2 | 0.382 | 0.405 | 0.376 | 0.339 | 0.229 | 0.412 | 0.464 | 0.404 | 0.425 | 0.393 | 0.265 |
| 201T | 1.05 | 1 | 0.945 | 0.986 | 0.951 | 0.666 | 0.613 | 0.675 | 0.647 | 0.35 | 0.348 | 0.354 | 0.343 | 0.323 | 0.658 | 0.702 | 0.741 | 0.663 | 0.648 | 0.697 |
| NCI-H1915 | 0.821 | 0.636 | 0.711 | 0.729 | 0.729 | 0.826 | 0.905 | 1.01 | 0.939 | 0.498 | 0.532 | 0.58 | 0.525 | 0.509 | 0.639 | 0.625 | 0.607 | 0.684 | 0.615 | 1.01 |
| NCI-H2009 | 1.04 | 1.02 | 1.03 | 0.683 | 0.948 | 0.91 | 0.745 | 0.95 | 0.958 | 0.207 | 0.179 | 0.251 | 0.202 | 0.191 | 0.714 | 0.617 | 0.607 | 0.663 | 0.671 | 0.793 |
| BEN | 0.392 | 0.313 | 0.863 | 0.289 | 0.328 | 0.585 | 0.512 | 0.594 | 0.703 | 0.461 | 0.472 | 0.48 | 0.499 | 0.434 | 0.294 | 0.293 | 0.276 | 0.304 | 0.284 | 0.595 |
| PC-14 | 0.233 | 0.15 | 0.192 | 0.176 | 0.236 | 0.872 | 0.716 | 0.66 | 0.533 | 0.543 | 0.635 | 0.526 | 0.515 | 0.364 | 0.931 | 1.05 | 0.895 | 1.13 | 0.809 | 0.829 |
| SK-MES-1 | 0.782 | 0.813 | 0.809 | 0.788 | 0.673 | 0.322 | 0.293 | 0.311 | 0.367 | 0.286 | 0.298 | 0.304 | 0.296 | 0.294 | 0.562 | 0.571 | 0.475 | 0.491 | 0.429 | 0.401 |
| NCI-H727 | 0.407 | 0.232 | 0.289 | 0.25 | 0.367 | 0.269 | 0.393 | 0.31 | 0.344 | 0.681 | 0.607 | 0.651 | 0.684 | 0.688 | 0.782 | 0.75 | 0.649 | 0.59 | 0.537 | 0.459 |
| NCI-H1355 | 0.713 | 0.723 | 0.645 | 0.624 | 0.65 | 0.474 | 0.346 | 0.432 | 0.381 | 0.387 | 0.362 | 0.407 | 0.418 | 0.331 | 0.481 | 0.428 | 0.377 | 0.412 | 0.396 | 0.399 |
| NCI-H1975 | 0.243 | 0.259 | 0.239 | 0.389 | 0.194 | 0.282 | 0.337 | 0.268 | 0.281 | 0.602 | 0.639 | 0.712 | 0.532 | 0.502 | 0.747 | 0.675 | 0.796 | 0.694 | 0.615 | 0.278 |
